# Values of other authors, collected in patent US20220249374A1, “RADIOTHERAPEUTIC MICROSPHERES” (priority 2019, published 2022).
# System: HCC
# Conditions: patients with HCC too advanced for resection or localized ablation
smiles,measurement,value
"CNC(=O)c1cc(Oc2ccc(NC(=O)Nc3ccc(Cl)c(C(F)(F)F)c3)cc2)ccn1 [Nexavar, sorafenib]",prolongation of survival,three
